The text below walks through data of US5272143A, “6-oxoazepinoindole compounds, and pharmaceutical compositions containing them” (Kali-Chemie Pharma GmbH, priority 1991, dated 1993).

In one series the test system is stomach motility. Kind of series: Determination of effect on stomach motility in anaesthetised rats. Type of series: in vivo, rats of the SIV 50 strain. The note with it: rat, 100 μmole/kg i.p.; for change in vivo at 100 µmol/kg: ip, read-out: Maximum Amplitude Increase (increase in % of control amplitude). The method, then: 2. Determination of effect on stomach motility in anaesthetised rats.
For the tests, groups of 5-6 fasting rats of the SIV 50 strain having a body weight of 220-290 g were used in each test which had been anaesthetised with a ketamine/xylazine mixture. The animals received an initial dose of 1 ml/kg of a solution of 50 mg/ml of ketamine and 10 mg/ml of xylazine administered i.p., and the anaesthetic level was maintained by a continuous intraperitoneal infusion of the same solution at an infusion rate of 1 ml/kg/h. The animals were tracheotomised and laparotomised. After applying a pylorus ligature, a stomach tube was inserted into the stomach and connected at the other end by means of a three-way tap to a calibrated pressure transducer (Statham Element P 23 ID). A corresponding tube was inserted rectally 8-9 cm into the colon and likewise connected in the same manner to a calibrated pressure transducer of the same type. The stomachs of the animals were then filled with 2 ml of water via the tube. After a stabilisation phase of 40 min, the pressure variations in the stomach and colon were measured over a test period of 2 hours and 20 minutes, and the amplitudes produced by the phasic gastric motility were recorded by means of a Watanabe multirecorder (MC 6621). The geometric mean values of the amplitudes during the first 20 min were determined for the individual animals and used as control amplitude values. After the first 20 min, the test substances were administered i.p. The maximum increase in amplitude (=mean value of the 20 minute period in which the highest increase in amplitude occurs) caused by the test substances was determined in % increase of the control amplitude values determined before administration of the test substances, and the mean value for the animal group is given in the following Table A. In addition, the maximum increase in the mean gastric tone caused by the test substances during the test period compared with the mean gastric tone existing before administration of the test substances was recorded. This increase in gastric tone is given in Table A in cm of H2 O (mean value of the animal group). In the colon, the test substances cause amplitude damping.

A further series deals with Mouse. Set-up: species or system Male mice. The note with it: in vivo, po, 4320 min. As for the experimental part:
1. Determination of the minimum toxic dose.
Male mice of 20-25 g weight are administered maximum doses of 300 mg/kg of the test substance p.o. The animals were carefully observed for 3 hours for symptoms of toxicity. Over a period of 72 hours after administration, all symptoms and cases of death are additionally recorded. Concomitant symptoms are likewise observed and recorded. If death or strong toxic symptoms are observed, further mice are administered increasingly lower doses until toxic symptoms no longer occur. The lowest dose which causes death or strong toxic symptoms is given in the following Table A as the minimum toxic dose. The example numbers given in Table A relate to the subsequent preparation examples.

For `O=C1NCC(CNCc2ccccc2)c2c[nH]c3cccc1c23` (stereo not shown) [Example 2, 3-Benzylaminomethyl-3,4,5,6-tetrahydro-6-oxo-1H-azepino[5,4,3-cd]indole], the change in vivo at 100 µmol/kg with stomach motility worked out at 239%. For the same molecule, the “Minimum Toxic Dose” value in the series with Mouse is recorded as > 300 mg/kg.
As for `CCNCC1CNC(=O)c2cccc3[nH]cc1c23` (stereo not shown) [Example 5a, 3-Ethylaminomethyl-3,4,5,6-tetrahydro-6-oxo-1H-azepino[5,4,3-cd]indole], the “Gastric Tone Increase” value in the series on stomach motility amounted to 9.5 cm H2O. The “Minimum Toxic Dose” value with Mouse was > 300 mg/kg.
As for `CCN(CC)CC1CNC(=O)c2cccc3[nH]cc1c23` (stereo not shown) [Example 5b, 3-Diethylaminomethyl-3,4,5,6-tetrahydro-6-oxo-1H-azepino[5,4,3-cd]indole], in the series on stomach motility, the change in vivo at 100 µmol/kg was determined as 449% and the “Gastric Tone Increase” value turned out to be 3.8 cm H2O. Further, the “Minimum Toxic Dose” value with Mouse is on record as > 300 mg/kg.
Consider `CC(C)NCC1CNC(=O)c2cccc3[nH]cc1c23` (stereo not shown) [Example 6, 3-Isopropylaminomethyl-3,4,5,6-tetrahydro-6-oxo-1H-azepino[5,4,3-cd]indole], for which, in the series on stomach motility, the change in vivo at 100 µmol/kg came to 609% and the “Gastric Tone Increase” value stood at 15.4 cm H2O. The “Minimum Toxic Dose” value with Mouse is recorded as > 300 mg/kg.
As to `NCCC1Cc2c[nH]c3cccc(c23)C(=O)N1` (stereo not shown) [Example 8, 4-(2-Aminoethyl)-3,4,5,6-tetrahydro-6-oxo-1H-azepino[5,4,3-cd]indole], the change in vivo at 100 µmol/kg with stomach motility was determined as 569%. The “Minimum Toxic Dose” value in the series with Mouse is > 300 mg/kg.
For `NCC1CNC(=O)c2cccc3c2c1cn3Cc1ccccc1` (stereo not shown) [Example 10, 1-Benzyl-3-aminomethyl-3,4,5,6-tetrahydro-6-oxo-1H-azepino[5,4,3-cd]indole], in the series on stomach motility, the change in vivo at 100 µmol/kg was determined as 663% and the “Gastric Tone Increase” value turned out to be 10.5 cm H2O. In addition, the “Minimum Toxic Dose” value in the series with Mouse is recorded as > 300 mg/kg.
The matching figures for `NCC1CNC(=O)c2cccc3c2c1cn3CCCc1ccccc1` (stereo not shown) [Example 13, 3-Aminomethyl-1-(3-phenylpropyl)-3,4,5,6-tetrahydro-6-oxo-1H-azepino[5,4,3-cd]indole]: 332%, 7.2 cm H2O and > 300 mg/kg.
`O=C1NCC(CN2CCCCC2)c2c[nH]c3cccc1c23` (stereo not shown) [Example 14, 3-(1-Piperidinylmethyl)-3,4,5,6-tetrahydro-6-oxo-1H-azepino[5,4,3-cd]indole]: the “Gastric Tone Increase” value in the series on stomach motility was determined as 3.0 cm H2O. Moreover, in the series with Mouse, the “Minimum Toxic Dose” value was > 300 mg/kg.
On to `CN(C)C=NCC1CNC(=O)c2cccc3[nH]cc1c23` (stereo not shown) [Example 15, 3-(Dimethylaminomethylideneaminomethyl)-3,4,5,6-tetrahydro-6-oxo-1H-azepino[5,4,3-cd]indole], for which, in the series on stomach motility, the change in vivo at 100 µmol/kg came to 308% and the “Gastric Tone Increase” value came out at 3.1 cm H2O. For the same molecule, the “Minimum Toxic Dose” value with Mouse is given as > 300 mg/kg.
In the case of `O=C1NC(CN2CCN(c3ccccc3)CC2)Cc2c[nH]c3cccc1c23` (stereo not shown) [Example 17, 4-(4-Phenylpiperazin-1-ylmethyl)-3,4,5,6-tetrahydro-6-oxo-1H-azepino[5,4,3-cd]indole], the change in vivo at 100 µmol/kg in the series on stomach motility stood at 293%. For the same molecule, the “Minimum Toxic Dose” value in the series on Mouse is > 300 mg/kg.
With `Cc1ccc(CNCC2CNC(=O)c3cccc4[nH]cc2c34)cc1` (stereo not shown) [Example 24], the change in vivo at 100 µmol/kg in the series on stomach motility was determined as 195%. Besides, the “Minimum Toxic Dose” value in the series with Mouse is listed as > 300 mg/kg.
Regarding `CN1CCN(CC2Cc3c[nH]c4cccc(c34)C(=O)N2)CC1` (stereo not shown) [Example 25], in the series with stomach motility, the change in vivo at 100 µmol/kg was 206%. In the series on Mouse, the “Minimum Toxic Dose” value is listed as 300 mg/kg.
Turning to `O=C1NC(CNC2CCCCC2)Cc2c[nH]c3cccc1c23` (stereo not shown) [Example 28], in the series with stomach motility, the change in vivo at 100 µmol/kg turned out to be 17% and the “Gastric Tone Increase” value is on record as 0.5 cm H2O. The “Minimum Toxic Dose” value in the series with Mouse was > 300 mg/kg.
Consider `O=C1NC(CN2CCOCC2)Cc2c[nH]c3cccc1c23` (stereo not shown) [Example 29], for which the change in vivo at 100 µmol/kg with stomach motility is 154%. In the series with Mouse, the “Minimum Toxic Dose” value was > 300 mg/kg.
`CC(C)(C)NCC1Cc2c[nH]c3cccc(c23)C(=O)N1` (stereo not shown) [Example 31]: in the series with stomach motility, the change in vivo at 100 µmol/kg came out at 928%. For the same molecule, in the series on Mouse, the “Minimum Toxic Dose” value is > 300 mg/kg.
Regarding `COc1ccc(CCNCC2CNC(=O)c3cccc4[nH]cc2c34)cc1OC` (stereo not shown) [Example 32], the change in vivo at 100 µmol/kg in the series with stomach motility stood at 922%. In the series with Mouse, the “Minimum Toxic Dose” value is recorded as > 300 mg/kg.
Turning to `CC(C)n1cc2c3c(cccc31)C(=O)NCC2CN` (stereo not shown) [Example 34], the change in vivo at 100 µmol/kg with stomach motility was 467%.
In the case of `COc1ccc(CCn2cc3c4c(cccc42)C(=O)NCC3CN)cc1OC` (stereo not shown) [Example 36], in the series with stomach motility, the change in vivo at 100 µmol/kg worked out at 351% and the “Gastric Tone Increase” value was found to be 11.5 cm H2O. Also, the “Minimum Toxic Dose” value with Mouse is reported as > 300 mg/kg.
The corresponding values for `O=C1NCC(CN2CCCC2)c2c[nH]c3cccc1c23` (stereo not shown) [Example 37] are 950%, 4.0 cm H2O and > 300 mg/kg.
Turning to `CCCNCC1CNC(=O)c2cccc3[nH]cc1c23` (stereo not shown) [Example 38], in the series with stomach motility, the change in vivo at 100 µmol/kg was 559% and the “Gastric Tone Increase” value worked out at 12.4 cm H2O. Also, the “Minimum Toxic Dose” value with Mouse is on record as > 300 mg/kg.
For the molecule `CN(C)CC1CNC(=O)c2cccc3[nH]cc1c23` (stereo not shown) [Example 39], in the series with stomach motility, the change in vivo at 100 µmol/kg came out at 569% and the “Gastric Tone Increase” value came out at 1.8 cm H2O. Besides, the “Minimum Toxic Dose” value in the series on Mouse was > 300 mg/kg.
The corresponding values for `CCCN(CCC)CC1CNC(=O)c2cccc3[nH]cc1c23` (stereo not shown) [Example 40] are 997%, 6.5 cm H2O and > 300 mg/kg.
For the molecule `CCCCNCC1CNC(=O)c2cccc3[nH]cc1c23` (stereo not shown) [Example 41], in the series with stomach motility, the change in vivo at 100 µmol/kg came to 234% and the “Gastric Tone Increase” value is 2.7 cm H2O. For the same molecule, the “Minimum Toxic Dose” value in the series with Mouse is > 300 mg/kg.
For `O=C1NC(CNC2CC2)Cc2c[nH]c3cccc1c23` (stereo not shown) [Example 45], in the series on stomach motility, the change in vivo at 100 µmol/kg is 580% and the “Gastric Tone Increase” value stood at 3.5 cm H2O. For the same molecule, the “Minimum Toxic Dose” value with Mouse is on record as > 300 mg/kg.
In the case of `O=C1NCC(CNCC2CC2)c2c[nH]c3cccc1c23` (stereo not shown) [Example 47], the “Gastric Tone Increase” value with stomach motility turned out to be 6.7 cm H2O.
